Test results reported in ChEMBL document CHEMBL5236644, “Multitargeting approaches to cognitive impairment: Synthesis of aryl-alkylpiperazines and assessment at cholinesterases, histamine H3 and dopamine D3 receptors” (Bioorg Med Chem, 2023).
pIC50, pKi: −log10 of the molar value.

Legend:
[1] = biological target: T1, Histamine H3 receptor (Homo sapiens, UniProt Q9Y5N1); assay: Inhibition of human H3 receptor at 10 uM incubated for 90 mins by scintillation counting method relative to control
[2] = biological target: T2, D(3) dopamine receptor (Homo sapiens, UniProt P35462); assay: Inhibition of human D3 receptor expressed in CHO cells at 10 uM by scintillation counting method relative to control; format: cell-based
T2 sequence (P35462 whole entry): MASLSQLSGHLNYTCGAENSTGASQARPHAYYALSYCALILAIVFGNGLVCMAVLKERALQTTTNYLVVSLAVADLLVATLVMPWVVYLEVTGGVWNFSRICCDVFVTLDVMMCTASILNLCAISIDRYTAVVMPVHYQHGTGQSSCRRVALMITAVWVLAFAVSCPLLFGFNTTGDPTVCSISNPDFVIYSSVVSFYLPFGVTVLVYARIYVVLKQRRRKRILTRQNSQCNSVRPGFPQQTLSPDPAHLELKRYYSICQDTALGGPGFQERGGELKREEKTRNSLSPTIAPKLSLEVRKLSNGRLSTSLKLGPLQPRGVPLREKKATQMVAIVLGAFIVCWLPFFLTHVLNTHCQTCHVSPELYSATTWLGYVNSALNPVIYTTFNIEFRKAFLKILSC

[3] = biological target: Cholinesterase (Equus caballus) (UniProt P81908); assay: Inhibition of equine BChE at 100 uM using acetylthiocholine chloride as substrate preincubated for 15 mins followed by substrate addition and measured after 30 mins by DTNB reagent based Ellman's method relative to control; details: time 45.0 min
Sequence of Cholinesterase (Equus caballus) (P81908 whole entry): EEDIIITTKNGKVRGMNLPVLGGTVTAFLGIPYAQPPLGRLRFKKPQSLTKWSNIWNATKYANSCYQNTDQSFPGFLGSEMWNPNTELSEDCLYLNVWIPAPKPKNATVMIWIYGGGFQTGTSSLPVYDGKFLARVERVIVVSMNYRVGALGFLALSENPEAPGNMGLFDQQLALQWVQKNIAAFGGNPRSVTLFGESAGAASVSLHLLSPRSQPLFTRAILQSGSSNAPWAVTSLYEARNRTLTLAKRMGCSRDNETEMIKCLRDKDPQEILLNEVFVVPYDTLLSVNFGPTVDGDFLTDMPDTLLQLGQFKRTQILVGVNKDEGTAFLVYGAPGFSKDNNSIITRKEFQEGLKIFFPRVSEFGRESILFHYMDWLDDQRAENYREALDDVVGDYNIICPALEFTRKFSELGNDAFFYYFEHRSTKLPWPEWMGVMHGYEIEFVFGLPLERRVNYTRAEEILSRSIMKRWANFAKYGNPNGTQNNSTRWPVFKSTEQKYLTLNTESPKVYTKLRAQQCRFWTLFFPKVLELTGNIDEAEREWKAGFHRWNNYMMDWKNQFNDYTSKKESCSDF

[4] = biological target: Cholinesterase (Equus caballus, UniProt P81908); assay: Inhibition of equine BChE using acetylthiocholine chloride as substrate preincubated for 15 mins followed by substrate addition and measured after 30 mins by DTNB reagent based Ellman's method
Sequence of Cholinesterase (P81908 whole entry): as above

[5] = biological target: Acetylcholinesterase (Electrophorus electricus, UniProt O42275); assay: Inhibition of electrical eel AChE using acetylthiocholine chloride as substrate preincubated for 15 mins followed by substrate addition and measured after 30 mins by DTNB reagent based Ellman's method
Sequence of Acetylcholinesterase (O42275 whole entry): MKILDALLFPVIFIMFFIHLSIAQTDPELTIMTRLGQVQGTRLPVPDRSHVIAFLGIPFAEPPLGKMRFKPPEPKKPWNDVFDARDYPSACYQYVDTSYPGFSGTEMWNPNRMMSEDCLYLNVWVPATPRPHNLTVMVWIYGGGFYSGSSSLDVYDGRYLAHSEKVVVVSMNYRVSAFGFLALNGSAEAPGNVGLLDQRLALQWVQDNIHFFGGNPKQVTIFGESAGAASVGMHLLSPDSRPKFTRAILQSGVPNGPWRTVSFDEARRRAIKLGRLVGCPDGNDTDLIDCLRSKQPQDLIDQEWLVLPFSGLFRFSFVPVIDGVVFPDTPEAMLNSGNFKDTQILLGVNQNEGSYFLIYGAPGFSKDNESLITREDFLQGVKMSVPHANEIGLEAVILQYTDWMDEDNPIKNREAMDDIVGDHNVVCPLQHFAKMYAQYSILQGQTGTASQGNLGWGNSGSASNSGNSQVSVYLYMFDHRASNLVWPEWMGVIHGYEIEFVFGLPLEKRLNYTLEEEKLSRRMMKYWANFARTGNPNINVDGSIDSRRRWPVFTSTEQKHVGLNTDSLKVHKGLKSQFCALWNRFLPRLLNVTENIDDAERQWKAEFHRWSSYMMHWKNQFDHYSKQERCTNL

[6] = biological target: T1, Histamine H3 receptor; assay: Inhibition of human H3 receptor at 1 uM incubated for 90 mins by scintillation counting method relative to control
[7] = biological target: T2, D(3) dopamine receptor; assay: Inhibition of human D3 receptor expressed in CHO cells at 1 uM by scintillation counting method relative to control; format: cell-based
[8] = biological target: T1, Histamine H3 receptor; assay: Binding affinity to human H3 receptor assessed as inhibition constant incubated for 90 mins by scintillation counting method
[9] = biological target: T2, D(3) dopamine receptor; assay: Binding affinity to human D3 receptor expressed in CHO cells assessed as inhibition constant by scintillation counting method; format: cell-based
[10] = biological target: T1, Histamine H3 receptor; assay: Inhibition of human H3 receptor incubated for 90 mins by scintillation counting method relative to control
[11] = biological target: T2, D(3) dopamine receptor; assay: Inhibition of human D3 receptor expressed in CHO cells assessed as inhibition constant by scintillation counting method; format: cell-based

T1 sequence (Q9Y5N1 whole entry): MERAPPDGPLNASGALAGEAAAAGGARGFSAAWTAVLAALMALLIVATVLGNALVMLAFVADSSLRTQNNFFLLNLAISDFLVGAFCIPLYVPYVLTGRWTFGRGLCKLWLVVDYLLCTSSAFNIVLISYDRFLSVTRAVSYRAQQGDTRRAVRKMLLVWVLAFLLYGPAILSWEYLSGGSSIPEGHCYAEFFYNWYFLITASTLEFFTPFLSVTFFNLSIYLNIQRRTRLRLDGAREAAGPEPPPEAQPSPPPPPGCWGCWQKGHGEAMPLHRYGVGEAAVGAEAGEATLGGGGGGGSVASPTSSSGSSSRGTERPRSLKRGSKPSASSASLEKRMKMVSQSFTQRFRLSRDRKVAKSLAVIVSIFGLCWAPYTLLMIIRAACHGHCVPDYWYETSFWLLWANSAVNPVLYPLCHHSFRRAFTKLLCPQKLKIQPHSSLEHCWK

Structure (SMILES): O=C(OCCN1CCN(c2ccccc2)CC1)c1ccc2ccccc2c1
- inhibition [1]: 61.5%
- inhibition [2]: 32.8%
- inhibition [3]: 36.5%

Structure (SMILES): CN(C)C(=O)Oc1cccc([N+](C)(C)C)c1 [NEOSTIGMINE]
- pIC50 [4]: 6.80
- inhibition [3]: > 95%

Structure (SMILES): O=C(OCCN1CCN(c2ccccc2)CC1)c1cccc2ccccc12
- inhibition [1]: 71.3%
- inhibition [2]: 52.8%
- inhibition [3]: 24.1%

Structure (SMILES): O=C(OCCCN1CCN(c2ccncc2)CC1)c1cc2ccccc2o1
- pIC50 [5]: 4.24
- pIC50 [4]: 4.01
- inhibition [6]: 88.8%
- inhibition [7]: 18%
- inhibition [3]: 49.9%
- pKi [8]: 6.57
- pKi [9]: < 8.00

Structure (SMILES): O=C(OCCCN1CCN(c2ccccc2)CC1)c1cccc2ccccc12
- inhibition [3]: < 10%

Structure (SMILES): CC(C)N1CCN(CCCCOc2ccc3c(c2)NC(=O)CC3)CC1
- pIC50 [5]: 5.80
- pIC50 [4]: 4.78

Structure (SMILES): CN1CCN(CCCOC(=O)c2cccc3ccccc23)CC1
- inhibition [1]: 83.8%
- inhibition [2]: 71.5%
- inhibition [3]: 50.6%
- pKi [8]: 5.43
- pKi [9]: < 8.00

Structure (SMILES): CN1CCN(CCCOC(=O)c2ccc3ccccc3c2)CC1
- pIC50 [5]: 4.01
- pIC50 [4]: 4.36
- inhibition [1]: 96.3%
- inhibition [2]: 77.7%
- inhibition [3]: 85.1%
- pKi [8]: 5.96
- pKi [9]: 8.51

Structure (SMILES): O=C(NCCCN1CCN(c2ccncc2)CC1)c1cc2ccccc2o1
- pIC50 [4]: 4.07
- inhibition [6]: 80.5%
- inhibition [7]: 23.5%
- inhibition [3]: 54.5%
- pKi [8]: 6.04
- pKi [9]: < 8.00

Structure (SMILES): CN1CCN(CCOC(=O)c2ccc3ccccc3c2)CC1
- pIC50 [4]: 4.24
- inhibition [1]: 78.2%
- inhibition [2]: 53.7%
- inhibition [3]: 74.8%
- pKi [8]: 5.66
- pKi [9]: < 8.00

Structure (SMILES): CN1CCN(CCOc2ccc3ccccc3c2)CC1
- inhibition [1]: 39.3%
- inhibition [2]: 15.2%
- inhibition [3]: 48.4%

Structure (SMILES): O=C(OCCCN1CCN(c2ccccc2)CC1)c1cc2ccccc2o1
- inhibition [3]: 46.8%

Structure (SMILES): c1ccc2c(OCCN3CCN(c4ccncc4)CC3)cccc2c1
- pIC50 [5]: 4.27
- pIC50 [4]: 4.39
- inhibition [6]: 54%
- inhibition [7]: 37.7%
- inhibition [3]: 65.4%

Structure (SMILES): CN1CCN(CCOC(=O)c2cccc3ccccc23)CC1
- inhibition [1]: 69%
- inhibition [2]: 49.7%
- inhibition [3]: 38.3%

Structure (SMILES): c1ccc(N2CCN(CCCOc3ccc4ccccc4c3)CC2)cc1
- pIC50 [4]: 4.27
- inhibition [6]: 36.8%
- inhibition [7]: 80.5%
- inhibition [3]: 65.7%
- pKi [8]: < 5.00
- pKi [9]: 9.47

Structure (SMILES): c1ccc(N2CCN(CCCOc3cccc4ccccc34)CC2)cc1
- inhibition [3]: 22.7%

Structure (SMILES): CN1CCN(CCOc2cccc3ccccc23)CC1
- pIC50 [4]: 4.23
- inhibition [1]: 21.3%
- inhibition [2]: 33.5%
- inhibition [3]: 64.9%

Structure (SMILES): CN1CCN(CCCOC(=O)c2cc3ccccc3o2)CC1
- inhibition [1]: 82.3%
- inhibition [2]: 9%
- inhibition [3]: 31.7%
- pKi [8]: 5.48
- pKi [9]: < 8.00

Structure (SMILES): c1ccc(N2CCN(CCOc3cccc4ccccc34)CC2)cc1
- inhibition [1]: 39.8%
- inhibition [2]: 34.5%
- inhibition [3]: 26%

Structure (SMILES): Clc1ccc(CCCOCCCN2CCCCC2)cc1
- inhibition [10]: 99.8%

Structure (SMILES): CN1CCN(CCCOc2cccc3ccccc23)CC1
- pIC50 [4]: 4.11
- inhibition [1]: 70%
- inhibition [2]: 47.8%
- inhibition [3]: 60.2%

Structure (SMILES): CN1CCN(CCCOc2ccc3ccccc3c2)CC1
- pIC50 [4]: 4.58
- inhibition [1]: 80.5%
- inhibition [2]: 22.8%
- inhibition [3]: 70%
- pKi [8]: 5.55
- pKi [9]: 9.15

Structure (SMILES): O=C(OCCCN1CCN(c2ccccc2)CC1)c1ccc2ccccc2c1
- inhibition [1]: 40.8%
- inhibition [2]: 65.3%
- inhibition [3]: 16.6%

Structure (SMILES): O=C(NCCCCN1CCN(c2ccccc2)CC1)c1ccc2ccccc2c1
- pKi [11]: 9.04

Structure (SMILES): c1ccc(N2CCN(CCOc3ccc4ccccc4c3)CC2)cc1
- inhibition [6]: 23.3%
- inhibition [7]: 45%
- inhibition [3]: 17.5%
